Test results reported in article PMC2784992 (Nature chemical biology, 2009).

Test system: Plasmodium falciparum lines, progeny, field isolates and transfected parasites
Settings: 0.8 µM verapamil with DHMS

For `COc1ccc(CCN(C)CCCC(C#N)(c2ccc(OC)c(OC)c2)C(C)C)cc1OC` (stereo not shown) [verapamil], which “effect on parasite response to 1” value is on record?
Its value is “did not have any effect”.
